In US10551389B2, “Target binding molecules identified by kinetic target-guided synthesis” (UNIVERSITY OF SOUTH FLORIDA, priority 2013, dated 2020):

Experiments:
Bcl-XL = Bcl-XL (Homo sapiens, UniProt Q07817); assay: Inhibition of Bcl-XL (disruption of Bcl-XL/Bim interaction); format: binding; conditions: for % Inhibition (25 μM) Bcl-XL / inhibition at 25 µM: compound at 25 μM; for % Inhibition (50 μM) Bcl-XL / inhibition at 50 µM: compound at 50 μM
Description: (§1) In a subsequent study, a structurally diverse library of forty five thio acids and thirty eight sulfonyl azides (identified above) was screened in parallel against Mcl-1 and Bcl-XL using the above mentioned approach. Several potential hit combinations were identified (Table 3). All of these kinetic TGS hit compounds were synthesized (identified above and in Table 3). All the reactions were performed at 20-30 mg scale. The 9-fluorenylmethyl thioester was placed in a 2.0 mL vial and 3.5% DBU/dry DMF solution was added (per 1 μmol of thioester, 4.7 μL, of 3.5% DBU/dry DMF solution was added) and the reaction was stirred for one minute. Then the sulfonylazide (1 eq to thioester) was added to the reaction mixture and immediately bubbling was observed. After the reaction was completed (approximately one minute, monitored by LC-MS) water (200 μL) was added and the pH was adjusted to 7.0 using 1M HCl solution. The reaction mixture was extracted with DCM until there is no product in the aqueous layer (checked by TLC or LC-MS). The product was purified by flash chromatography. Testing of these acylsulfonamides has shown that the hit compounds disrupt the Bcl-XL/Bim or Mcl-1/Bim interaction (Table 3).

Mcl-1 = Mcl-1 (Homo sapiens, UniProt Q07820); assay: Inhibition of Mcl-1 (disruption of Mcl-1/Bim interaction); format: binding; conditions: for % Inhibition (25 μM) Mcl-1 / inhibition at 25 µM: compound at 25 μM; for % Inhibition (50 μM) Mcl-1 / inhibition at 50 µM: compound at 50 μM
Description: as §1

Sequence of Mcl-1 (Q07820 whole entry, species assumed): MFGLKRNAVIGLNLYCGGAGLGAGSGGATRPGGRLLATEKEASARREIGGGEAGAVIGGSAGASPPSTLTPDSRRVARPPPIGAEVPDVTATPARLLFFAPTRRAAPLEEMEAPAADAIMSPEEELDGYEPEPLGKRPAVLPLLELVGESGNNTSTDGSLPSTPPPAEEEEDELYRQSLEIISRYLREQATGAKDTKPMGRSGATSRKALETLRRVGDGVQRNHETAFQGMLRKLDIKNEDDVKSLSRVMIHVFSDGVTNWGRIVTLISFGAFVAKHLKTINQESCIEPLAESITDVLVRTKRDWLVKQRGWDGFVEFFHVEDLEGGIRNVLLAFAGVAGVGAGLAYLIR
Sequence of Bcl-XL (Q07817 whole entry, species assumed): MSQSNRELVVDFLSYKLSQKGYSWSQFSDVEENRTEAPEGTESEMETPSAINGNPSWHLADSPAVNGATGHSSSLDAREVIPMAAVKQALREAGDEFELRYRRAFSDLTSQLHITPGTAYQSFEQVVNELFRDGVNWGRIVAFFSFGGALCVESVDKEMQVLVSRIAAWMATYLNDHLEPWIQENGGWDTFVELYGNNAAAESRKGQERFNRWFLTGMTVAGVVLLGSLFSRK

| Structure (SMILES) | % Inhibition (25 μM) Bcl-XL (Bcl-XL) [%] | % Inhibition (50 μM) Bcl-XL (Bcl-XL) [%] | % Inhibition (25 μM) Mcl-1 (Mcl-1) [%] | % Inhibition (50 μM) Mcl-1 (Mcl-1) [%] | inhibition at 25 µM (Bcl-XL) [%] | inhibition at 50 µM (Bcl-XL) [%] | IC50 (Mcl-1) [µM] | inhibition at 25 µM (Mcl-1) [%] | inhibition at 50 µM (Mcl-1) [%] | IC50 (Bcl-XL) [µM] |
| --- | --- | --- | --- | --- | --- | --- | --- | --- | --- | --- |
| NS(=O)(=O)c1ccc(CN(CCSc2ccccc2)Cc2ccc(S(=O)(=O)NC(=O)CC3Sc4ccccc4NC3=O)cc2)cc1 (stereo not shown) [SZ10TA34] | 17.4 | 27.0 | 19.4 | 64.1 | – | – | – | – | – | – |
| Cn1cc(C(=O)C2CCCCC2)c2cc(C(=O)NS(=O)(=O)c3ccc(CN(CCSc4ccccc4)Cc4ccc(S(N)(=O)=O)cc4)cc3)ccc21 [SZ10TA40] | <2.0 | <2.0 | 37.2 | 35.2 | – | – | – | – | – | – |
| NS(=O)(=O)c1ccc(CN(CCSc2ccccc2)Cc2ccc(S(=O)(=O)NC(=O)c3cccc(NCCc4ccccc4)c3)cc2)cc1 [SZ10TA44] | 9.9 | 20.6 | 27.6 | 63.4 | – | – | – | – | – | – |
| CC(C)(C)c1ccc(-c2ccc(S(=O)(=O)NC(=O)c3ccc4c(ccn4Cc4ccc(C(F)(F)F)cc4C(F)(F)F)c3)cc2)cc1 [SZ11TA30] | 8.5 | <2.0 | 53.1 | 63.6 | – | – | – | – | – | – |
| Cn1cc(C(=O)C2CCCCC2)c2cc(C(=O)NS(=O)(=O)c3ccc(-c4ccc(C(C)(C)C)cc4)cc3)ccc21 [SZ11TA40] | – | – | – | – | 30.7 | 58.7 | 21.9 | 74 | > 99 | – |
| O=C(NS(=O)(=O)c1ccc(CNc2cccc([N+](=O)[O-])c2)cc1)c1ccc(CN2C(=O)C(c3ccc(F)cc3F)=C(c3ccc(F)cc3F)C2=O)cc1 [SZ12TA42] | – | – | – | – | 14 | 22.6 | 13.6 | 77.3 | – | – |
| Cn1cc(C(=O)C2CCCCC2)c2cc(C(=O)NS(=O)(=O)c3ccc(COc4ccc5c(=O)cc(-c6ccccc6)oc5c4)cc3)ccc21 [SZ14TA40] | 27.8 | 47.9 | 68.5 | 93.1 | – | – | – | – | – | – |
| O=C(NS(=O)(=O)c1ccc(CN(CCSc2ccccc2)Cc2c(F)cccc2Cl)cc1)c1ccccc1 [SZ15TA1] | – | – | – | – | – | 53.4 | 9.7 | – | – | – |
| Cc1nc(-c2ccccc2)sc1C(=O)NS(=O)(=O)c1ccc(CN(CCSc2ccccc2)Cc2c(F)cccc2Cl)cc1 [SZ15TA3] | – | – | – | – | – | 43 | 5.8 | – | – | – |
| COc1cc(OC)cc(C(=O)NS(=O)(=O)c2ccc(CN(CCSc3ccccc3)Cc3c(F)cccc3Cl)cc2)c1 [SZ15TA5] | – | 38.4 | – | >99.0 | – | – | 13.4 | – | – | 53 |
| O=C(NS(=O)(=O)c1ccc(CN(CCSc2ccccc2)Cc2c(F)cccc2Cl)cc1)c1ccc(OC(F)(F)F)cc1 [SZ15TA8] | 3.4 | 12.4 | <2.0 | 96.5 | – | – | 7.6 | – | – | 47 |
| O=C(NS(=O)(=O)c1ccc(CN(CCSc2ccccc2)Cc2c(F)cccc2Cl)cc1)c1ccc(-c2ccc(F)cc2)cc1 [SZ15TA14] | 31.1 | 23.2 | 65.8 | 58.8 | – | – | – | – | – | – |
| O=C(Cn1c2ccccc2c2ccccc21)NS(=O)(=O)c1ccc(CN(CCSc2ccccc2)Cc2c(F)cccc2Cl)cc1 [SZ15TA15] | 10.1 | 8.8 | 42.2 | 53.6 | – | – | – | – | – | – |
| O=C(NS(=O)(=O)c1ccc(CN(CCSc2ccccc2)Cc2c(F)cccc2Cl)cc1)c1ccc(CCc2ccccn2)cc1 [SZ15TA17] | – | – | – | – | 43.4 | 60 | 20.2 | 79.6 | – | – |
| COc1ccc(Cc2ccc(C(=O)NS(=O)(=O)c3ccc(CN(CCSc4ccccc4)Cc4c(F)cccc4Cl)cc3)cc2)c(OC)c1OC [SZ15TA24] | 14.7 | 18.9 | 54.4 | 70.8 | – | – | – | – | – | – |

Further lines, results first:

| % Inhibition (25 μM) Bcl-XL (Bcl-XL) [%] | % Inhibition (50 μM) Bcl-XL (Bcl-XL) [%] | % Inhibition (25 μM) Mcl-1 (Mcl-1) [%] | % Inhibition (50 μM) Mcl-1 (Mcl-1) [%] | inhibition at 25 µM (Bcl-XL) [%] | inhibition at 50 µM (Bcl-XL) [%] | IC50 (Mcl-1) [µM] | inhibition at 25 µM (Mcl-1) [%] | inhibition at 50 µM (Mcl-1) [%] | IC50 (Bcl-XL) [µM] | Structure (SMILES) |
| --- | --- | --- | --- | --- | --- | --- | --- | --- | --- | --- |
| – | – | – | – | 43 | 57.8 | 15.3 | 77.2 | – | – | O=C(NS(=O)(=O)c1ccc(CN(CCSc2ccccc2)Cc2c(F)cccc2Cl)cc1)c1ccc(-c2ccccn2)cc1 [SZ15TA25] |
| 19.6 | 28.6 | 47.4 | 82.8 | – | – | – | – | – | – | O=C(CC1Sc2ccccc2NC1=O)NS(=O)(=O)c1ccc(CN(CCSc2ccccc2)Cc2c(F)cccc2Cl)cc1 (stereo not shown) [SZ15TA34] |
| – | – | – | – | 26.8 | 55.5 | 31.5 | 49.9 | – | – | O=C(NS(=O)(=O)c1ccc(-c2ccc(C(F)(F)F)cc2)cc1)c1cccc(NCCc2ccccc2)c1 [SZ16TA44] |
| – | – | – | – | – | 39.6 | 8.6 | – | 100 | – | COc1cccc(CN(CCSc2ccccc2)Cc2ccc(S(=O)(=O)NC(=O)c3sc(-c4ccccc4)nc3C)cc2)c1 [SZ17TA3] |
| – | – | – | – | – | 66.5 | 20.1 | – | – | – | COc1cccc(CN(CCSc2ccccc2)Cc2ccc(S(=O)(=O)NC(=O)c3cccc4ccccc34)cc2)c1 [SZ17TA7] |
| – | – | – | – | 4.1 | < 2 | 8.4 | 60.5 | 100 | – | COc1cccc(CN(CCSc2ccccc2)Cc2ccc(S(=O)(=O)NC(=O)c3ccc(OC(F)(F)F)cc3)cc2)c1 [SZ17TA8] |
| 16.6 | 2.8 | 73.9 | 46.7 | – | – | – | – | – | – | COc1cccc(CN(CCSc2ccccc2)Cc2ccc(S(=O)(=O)NC(=O)c3ccc(-c4ccc(F)cc4)cc3)cc2)c1 [SZ17TA14] |
| – | – | – | – | 3 | 12 | – | 53.3 | – | – | COc1cccc(CN(CCSc2ccccc2)Cc2ccc(S(=O)(=O)NC(=O)Cn3c4ccccc4c4ccccc43)cc2)c1 [SZ17TA15] |
| 68.1 | 58.4 | 73.9 | 89.0 | – | – | – | – | – | – | COc1cccc(CN(CCSc2ccccc2)Cc2ccc(S(=O)(=O)NC(=O)c3ccc(CCc4ccccn4)cc3)cc2)c1 [SZ17TA17] |
| <2.0 | <2.0 | 7.2 | 12.4 | – | – | – | – | – | – | COc1cccc(CN(CCSc2ccccc2)Cc2ccc(S(=O)(=O)NC(=O)CCCN3C(=O)C(c4ccc(F)cc4F)=C(c4ccc(F)cc4F)C3=O)cc2)c1 [SZ17TA20] |
| 38.6 | 54.5 | 64.9 | 93.6 | – | – | – | – | – | – | COc1cccc(CN(CCSc2ccccc2)Cc2ccc(S(=O)(=O)NC(=O)c3ccc(-c4ccccn4)cc3)cc2)c1 [SZ17TA25] |
| <2.0 | <2.0 | 18.0 | 15.8 | – | – | – | – | – | – | COc1cccc(CN(CCSc2ccccc2)Cc2ccc(S(=O)(=O)NC(=O)c3ccc4c(ccn4Cc4ccc(C(F)(F)F)cc4C(F)(F)F)c3)cc2)c1 [SZ17TA30] |
| 7.5 | <2.0 | 25.8 | 58.5 | – | – | – | – | – | – | COc1cccc(CN(CCSc2ccccc2)Cc2ccc(S(=O)(=O)NC(=O)c3ccc4c(c3)c(C(=O)C3CCCCC3)cn4C)cc2)c1 [SZ17TA40] |
| 6.8 | <2.0 | 62.7 | 34.5 | – | – | – | – | – | – | COc1cccc(CN(CCSc2ccccc2)Cc2ccc(S(=O)(=O)NC(=O)c3ccc4c(c3)c(C(=O)c3cccs3)cn4C)cc2)c1 [SZ17TA45] |
| 14.1 | 5.2 | 18.3 | 52.3 | – | – | – | – | – | – | COc1cc2c(cc1OC)C(c1ccccc1)N(CCS(=O)(=O)NC(=O)c1ccc(CN3C(=O)C(c4ccc(F)cc4F)=C(c4ccc(F)cc4F)C3=O)cc1)CC2 (stereo not shown) [SZ27TA42] |
| 9.7 | <2.0 | 42.8 | 60.5 | – | – | – | – | – | – | O=C(NS(=O)(=O)CCN(CCSc1ccccc1)Cc1ccc2c(c1)OCO2)c1ccc2c(ccn2Cc2ccc(C(F)(F)F)cc2C(F)(F)F)c1 [SZ28TA30] |
| 8.1 | <2.0 | 22.6 | 25.8 | – | – | – | – | – | – | O=C(NS(=O)(=O)CCN(CCSc1ccccc1)Cc1ccc2c(c1)OCO2)c1ccc(C(c2c[nH]c3ccccc23)c2c[nH]c3ccccc23)cc1 [SZ28TA31] |
| 25.7 | 34.6 | 46.8 | 54.0 | – | – | – | – | – | – | Cn1cc(C(=O)c2cccs2)c2cc(C(=O)NS(=O)(=O)CCN(CCSc3ccccc3)Cc3ccc4c(c3)OCO4)ccc21 [SZ28TA45] |
| – | – | – | – | 29.6 | 51.3 | 9.4 | 69.9 | 100 | – | Cc1nc(-c2ccccc2)sc1C(=O)NS(=O)(=O)c1ccc(CN(CCSc2ccccc2)Cc2ccc3c(c2)OCO3)cc1 [SZ31TA3] |
